# Bridges are numbered along the chain shown (N, C = ends). Where no end group is shown, it is not given here.
# Columns and labels:
# [1] = biological target: V2R (Homo sapiens, UniProt P30518); conditions: vaptans, background; cited from earlier work
# [2] = biological target: vasopressin V2 receptor subtype (V2R) (Homo sapiens, UniProt P30518); test: 3H-AVP competition binding on V2R membranes; conditions: for Ki: Ki (nM ± SEM), binding affinity of the ligands for V2R, 3H-AVP competition, mean ± SEM; for V2R inhibition, 3H-AVP binding (FIG. 15): compared with U-Da2a
# Experimental: Reaction mixtures contained 50 mM Tris-HCl, pH 7.4, 10 mM MgCl2 and 1 g/L BSA in a final volume of 100 μL. Plates were incubated for 3 h at room temperature. Binding reactions were stopped by filtration through a GF/C filter pre-soaked in 0.5% polyethyleneimine on a cell harvester ([sequence], Courtaboeuf, France) and plates were dried. […] A one-site inhibition mass action curve was fitted to inhibition binding data using Kaleidagraph (SYNERGY SOFTWARE, Reading, Pa., USA).
compound,measurement,setting,value
Cc1nc2c([nH]1)-c1ccccc1N(C(=O)c1ccc(NC(=O)c3ccccc3-c3ccccc3)cc1)CC2 [Conivaptan],V2/V1a selectivity index,[1],0.15
CCOc1ccc2c(c1)C1(CCC(OCCN3CCOCC3)CC1)C(=O)N2S(=O)(=O)c1ccc(C(=O)NC(C)(C)C)cc1OC (stereo not shown) [Satavaptan],V2/V1a selectivity index,[1],112
"CNLPVKPGPCNGFFSAFYYSQKTNKCHSFTYGGCKGNANRFSTIEKCRRTCVG (disulfide 1-51, 10-34, 26-47) [U-Da2a-delta4 N-ter]",Ki,[2],1.57 ± 1.2 nM
DTx-E-R55 (LQHRTFCKLPAEPGPCKASIPAFYYNWAAKKCQLFHYGGCKGNANRFSTIEKCRRACVG; listed as Dendroaspis polylepis) [reference compound],"V2R inhibition, 3H-AVP binding (FIG. 15)",[2],not able to block V2R
"Dendrotoxin-K [DTx-K, reference compound]","V2R inhibition, 3H-AVP binding (FIG. 15)",[2],no V2R inhibition
"RPKFCNLPVKPGPCNGFFSAFYYSQKTNKCHSFTYGGCKGNANRFSTIEKCRRTCVG (disulfide 5-55, 14-38, 30-51) [U-Da2a-S3K]",Ki,[2],1.29 ± 0.34 nM
"SFCNLPVKPGPCNGFFSAFYYSQKTNKCHSFTYGGCKGNANRFSTIEKCRRTC (disulfide 3-53, 12-36, 28-49) [U-Da2a-delta2 N-ter/delta2 C-ter]",Ki,[2],3.23 ± 2.31 nM

# — patent US9631001B2, “Peptide antagonists of the vasopressin-2 receptor” (COMMISSARIAT A L'ENERGIE ATOMIQUE ET AUX ENERGIES …, priority 2012, dated 2017)
